Results: US9255272B2, “Use of inhibitors of leukotriene B4 receptor BLT2 for treating asthma” (Korea University Research & Business Foundation, priority 2007, dated 2016)

How the values were obtained:
eosinophil = conditions: concentration of 10 μM; cited from earlier work
[1] = target: eosinophil membranes (LTB4 binding); conditions: read-out: IC50 for inhibition of the binding of radiolabeled LTB4 to eosinophil membranes; cited from earlier work
BLT1 mRNA = BLT1 mRNA level in lung of OVA-challenged mice (semiquantitative RT-PCR); format: in vivo, mouse; conditions: C57BL/6 mice, 1.6 mg/kg i.v. 24 hr and 1 hr before 10% OVA challenge
Experimental: (§1) Female BALB/c mice and C57BL/6 mice (7 weeks old; 18-20 g) were obtained from Orientbion Inc. (Seoungnam, Korea). Sensitization and challenge were carried out as described previously with some modification (28). Briefly, female C57BL/6 mice (7 weeks old; 18-20 g) were immunized by intraperitoneal (i.p.) injection of 200 μg ovalbumin (OVA) emulsified in 2.5 mg of adjuvant aluminum hydroperoxide gel (alum) (Pierce, Rockford, Ill.). A second i.p. injection of 20 μg OVA adsorbed onto alum (2.5 mg) was administered 10 days later. After an additional 10 days, mice were exposed to an aerosol of 1% OVA in saline for 30 min daily on 3 consecutive days. On day 25, mice were finally challenged by provocation with 10% OVA aerosol. For inhibition experiments, sense or antisense BLT2 (1.6 mg/kg) was injected intravenously 24 h and then 1 h before the 10% OVA challenge. The mice were then killed on day 27 to assess asthmatic phenotypes. Antisense BLT2 oligonucleotide (5′-[…]-3′ (SEQ ID NO: 15)), sense BLT2 oligonucleotide (5′-[…]-3′ (SEQ ID NO: 16)).
Total RNA was extracted from lung samples using Easy-blue RNA extraction reagent (Intron, Korea). […] For the semiquantitative analysis of transcripts, the optimal PCR conditions were first determined by linear amplification of glyceraldehyde-3-phosphate dehydrogenase (GAPDH). […]

OVA-challenged mice = assay: Recruitment of CD4+ and CD8+ T cells into BAL fluid (flow cytometry); format: in vivo, mouse; conditions: BAL fluid 12 hr after 10% OVA challenge
Excerpt: FIGS. 8a and 8b show recruitment of T lymphocytes into airways. FIG. 8a depicts FACS analysis showing recruitment of CD4+ T cells into the BAL fluid of mice 12 hr after aerosol OVA challenge. FIG. 8b depicts FACS analysis showing recruitment of CD8+ T cells into the BAL fluid of mice 12 hr after aerosol OVA challenge. BAL fluid was collected 12 hr after 10% OVA challenge and washed with PBS. The leukocytes present were stained with FITC-conjugated anti-mouse TCR chain and PE-cy5 anti-mouse CD8a or PE rat anti-mouse CD4 after blocking with anti-FcRyantibody. Samples were then analyzed by flow cytometry to assess T lymphocyte recruitment. Data are means±SEM (n=6 in each group). *P<0.05 vs. OVA/asBLT2. For flow cytometric analysis, the cells in the BAL fluid were suspended in 50 μl of PBS containing 0.01% sodium azide and 0.1% BSA. BAL leukocytes were incubated for 30 min with 2.4G2 anti-FcγIII/II receptor (BD PharMingen) and stained for 30 min at 4° C. with FITC-conjugated anti-mouse TCR. chain (BD PharMingen) and PE-cy5 anti-mouse CD8a (BD PharMingen) or PE rat anti-mouse CD4 (BD PharMingen). Cytofluorimetry was performed with a FACS Caiibur™ (Becton Dickinson, Franklin Lakes, N.J.), and the results were analyzed with CellQuest software (Becton-Dickinson).

LTB4 = LTB4 level in BAL fluid (EIA); format: in vivo, mouse; conditions: antisense BLT2 1.6 mg/kg i.v. 24 h and 1 h before 10% OVA; 48 h
Experimental: Female BALB/c mice and C57BL/6 mice (7 weeks old; 18-20 g) were obtained from Orientbion Inc. (Seoungnam, Korea). Sensitization and challenge were carried out as described previously with some modification (28). Briefly, female C57BL/6 mice (7 weeks old; 18-20 g) were immunized by intraperitoneal (i.p.) injection of 200 μg ovalbumin (OVA) emulsified in 2.5 mg of adjuvant aluminum hydroperoxide gel (alum) (Pierce, Rockford, Ill.). A second i.p. injection of 20 μg OVA adsorbed onto alum (2.5 mg) was administered 10 days later. After an additional 10 days, mice were exposed to an aerosol of 1% OVA in saline for 30 min daily on 3 consecutive days. On day 25, mice were finally challenged by provocation with 10% OVA aerosol. For inhibition experiments, sense or antisense BLT2 (1.6 mg/kg) was injected intravenously 24 h and then 1 h before the 10% OVA challenge. The mice were then killed on day 27 to assess asthmatic phenotypes. […]
Levels of LTB4 were quantified with the leukotriene B4 enzyme immunoassay (EIA) Biotrak™ system (Amersham Biosciences, UK). […] Substrate (tetramethylbenzidine) was then added, and the reaction was stopped by adding an acid solution and the color read at 450 nm in a spectrophotometer. […] Statistical significance of differences between groups was assessed by analysis of variance, and P<0.05 was considered significant.

ROS = ROS levels in BAL fluid cells (DCF fluorescence, FACS); format: in vivo, mouse; conditions: 1.6 mg/kg i.v. 24 hr and 1 hr before 10% OVA; BAL fluid 48 h after challenge
Experimental: as §1
ROS levels in BAL fluids were measured as a function of DCF fluorescence as described previously (30). […] DCF fluorescence was excited at 488 nm and the evoked emission was filtered with a 515-nm long-pass filter. […]

## CCc1cc(C(C)=O)c(O)cc1OCCCCCC(C)(C)c1nnn[nH]1 [LY255283, 1-[5-ethyl-2-hydroxy-4-[[6-methyl-6-(1H-tetrazol-5-yl)heptyl]oxy]phenyl]-ethanone, reference compound]
eosinophil
  inhibition of eosinophil chemotaxis: 80%
[1]
  IC50: 260 nM

## antisense BLT2: Antisense BLT2 oligonucleotide 5′-GCTCAGTAGTGTCTCATTCC-3′ (SEQ ID NO: 15) (listed as DNA, chemistry not fully specified)
BLT1 mRNA
  BLT1 expression in the lung (mRNA): without interfering
OVA-challenged mice
  effect on T cell trafficking into airways: no inhibitory effect
LTB4
  suppression of the level of LTB4 in BAL fluid: −72%
ROS
  reduction of ROS levels in BAL fluid: −70%
